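48-hour exposure; five concentrations; linearly interpolated endpoints. Definition used: TGI = concentration required for complete inhibition of growth.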
Experiments:
Assay in all cases: NCI anticancer screen, dose series, 48 h
786-0 renal = tested on: 786-0 renal
A498 renal = tested on: A498 renal
A549 NSCLC = tested on: A549 NSCLC
ACHN renal = tested on: ACHN renal
BT-549 breast = tested on: BT-549 breast
CAKI-1 renal = tested on: CAKI-1 renal
CCRF-CEM leukemia = tested on: CCRF-CEM leukemia
COLO 205 colon = tested on: COLO 205 colon
DU-145 prostate = tested on: DU-145 prostate
EKVX NSCLC = tested on: EKVX NSCLC
HCC-2998 colon = tested on: HCC-2998 colon
HCT-116 colon = tested on: HCT-116 colon
HCT-15 colon = tested on: HCT-15 colon
HL-60(TB) leukemia = tested on: HL-60(TB) leukemia
HOP-62 NSCLC = tested on: HOP-62 NSCLC
HOP-92 NSCLC = tested on: HOP-92 NSCLC
HS 578T breast = tested on: HS 578T breast
HT29 colon = tested on: HT29 colon
IGROV1 ovarian = tested on: IGROV1 ovarian
K-562 leukemia = tested on: K-562 leukemia
KM12 colon = tested on: KM12 colon
LOX IMVI melanoma = tested on: LOX IMVI melanoma
M14 melanoma = tested on: M14 melanoma
MALME-3M melanoma = tested on: MALME-3M melanoma
MCF7 breast = tested on: MCF7 breast
MDA-MB-231 breast = tested on: MDA-MB-231 breast
MDA-MB-435 = tested on: MDA-MB-435
MDA-N = tested on: MDA-N
MOLT-4 leukemia = tested on: MOLT-4 leukemia
NCI-H226 lung = tested on: NCI-H226 lung
NCI-H23 lung = tested on: NCI-H23 lung
NCI-H460 lung = tested on: NCI-H460 lung
NCI/ADR-RES ovarian = tested on: NCI/ADR-RES ovarian
OVCAR-3 ovarian = tested on: OVCAR-3 ovarian
OVCAR-4 ovarian = tested on: OVCAR-4 ovarian
OVCAR-5 ovarian = tested on: OVCAR-5 ovarian
OVCAR-8 ovarian = tested on: OVCAR-8 ovarian
PC-3 prostate = tested on: PC-3 prostate
RPMI-8226 leukemia = tested on: RPMI-8226 leukemia
RXF 393 renal = tested on: RXF 393 renal
SF-268 CNS = tested on: SF-268 CNS
SF-295 CNS = tested on: SF-295 CNS
SF-539 CNS = tested on: SF-539 CNS
SK-MEL-2 melanoma = tested on: SK-MEL-2 melanoma
SK-MEL-28 melanoma = tested on: SK-MEL-28 melanoma
SK-MEL-5 melanoma = tested on: SK-MEL-5 melanoma
SK-OV-3 ovarian = tested on: SK-OV-3 ovarian
SN12C renal = tested on: SN12C renal
SNB-19 CNS = tested on: SNB-19 CNS
SNB-75 CNS = tested on: SNB-75 CNS
SW-620 colon = tested on: SW-620 colon
T-47D breast = tested on: T-47D breast
TK-10 renal = tested on: TK-10 renal
U251 CNS = tested on: U251 CNS
UACC-257 melanoma = tested on: UACC-257 melanoma
UACC-62 melanoma = tested on: UACC-62 melanoma
UO-31 renal = tested on: UO-31 renal
NCI-H522 lung = tested on: NCI-H522 lung
SR leukemia = tested on: SR leukemia

Compound `CC1(c2ccc(Cl)s2)CC(c2ccc(Cl)s2)=C(C#N)C(=C(C#N)C#N)N1` (configuration not stated) has a TGI (786-0 renal) of 40.6 µM, a TGI (A498 renal) of 37.8 µM and a TGI (A549 NSCLC) of 48.8 µM. The TGI (ACHN renal) was 31.4 µM, the TGI (BT-549 breast) was 45.7 µM and the TGI (CAKI-1 renal) was 34.8 µM. For the same compound, the TGI (CCRF-CEM leukemia) was greater than 100 µM, the TGI (COLO 205 colon) was 61.1 µM and the TGI (DU-145 prostate) was 30.6 µM. For the same compound, the TGI (EKVX NSCLC) was 32.6 µM, the TGI (HCC-2998 colon) was 34.5 µM and the TGI (HCT-116 colon) was 34.2 µM. It also gave a TGI (HCT-15 colon) of 35.4 µM, a TGI (HL-60(TB) leukemia) of 40.1 µM and a TGI (HOP-62 NSCLC) of 36 µM. The TGI (HOP-92 NSCLC) was 38.8 µM, the TGI (HS 578T breast) was 61.6 µM and the TGI (HT29 colon) was 36.8 µM. It also gave a TGI (IGROV1 ovarian) of 35.3 µM, a TGI (K-562 leukemia) greater than 100 µM and a TGI (KM12 colon) of 36 µM. It also gave a TGI (LOX IMVI melanoma) of 44.3 µM, a TGI (M14 melanoma) of 36.4 µM and a TGI (MALME-3M melanoma) of 43.1 µM. It also gave a TGI (MCF7 breast) of 39.9 µM, a TGI (MDA-MB-231 breast) of 47.1 µM and a TGI (MDA-MB-435) of 35.1 µM. For the same compound, the TGI (MDA-N) was 49.5 µM, the TGI (MOLT-4 leukemia) was greater than 100 µM and the TGI (NCI-H226 lung) was greater than 100 µM. For the same compound, the TGI (NCI-H23 lung) was 42.2 µM, the TGI (NCI-H460 lung) was 82.6 µM and the TGI (NCI/ADR-RES ovarian) was 38.8 µM. It also gave a TGI (OVCAR-3 ovarian) of 28.4 µM, a TGI (OVCAR-4 ovarian) of 33.2 µM and a TGI (OVCAR-5 ovarian) of 35.8 µM. It also gave a TGI (OVCAR-8 ovarian) of 50.4 µM, a TGI (PC-3 prostate) of 33.5 µM and a TGI (RPMI-8226 leukemia) greater than 100 µM. For the same compound, the TGI (RXF 393 renal) was 33.7 µM, the TGI (SF-268 CNS) was 48.9 µM and the TGI (SF-295 CNS) was 29.8 µM. The TGI (SF-539 CNS) was 68.7 µM, the TGI (SK-MEL-2 melanoma) was 47.2 µM and the TGI (SK-MEL-28 melanoma) was 50.5 µM. The TGI (SK-MEL-5 melanoma) was 29.5 µM, the TGI (SK-OV-3 ovarian) was 30.5 µM and the TGI (SN12C renal) was 45.7 µM. The TGI (SNB-19 CNS) was 44.2 µM, the TGI (SNB-75 CNS) was 38.6 µM and the TGI (SW-620 colon) was 52.4 µM. It also gave a TGI (T-47D breast) of 46.7 µM, a TGI (TK-10 renal) of 38.1 µM and a TGI (U251 CNS) of 33.2 µM. The TGI (UACC-257 melanoma) was 43.4 µM, the TGI (UACC-62 melanoma) was 30.7 µM and the TGI (UO-31 renal) was 34.5 µM.

Work on `COC(=O)C1Cc2ccc3c(c2C1=O)CCCC3` (configuration not stated) yielded a TGI (786-0 renal) greater than 100 µM, a TGI (A498 renal) greater than 100 µM and a TGI (A549 NSCLC) greater than 100 µM. It also gave a TGI (ACHN renal) greater than 100 µM, a TGI (BT-549 breast) greater than 100 µM and a TGI (CAKI-1 renal) greater than 100 µM. It also gave a TGI (CCRF-CEM leukemia) greater than 100 µM, a TGI (COLO 205 colon) greater than 100 µM and a TGI (DU-145 prostate) greater than 100 µM. The TGI (EKVX NSCLC) was greater than 100 µM, the TGI (HCC-2998 colon) was greater than 100 µM and the TGI (HCT-116 colon) was greater than 100 µM. It also gave a TGI (HCT-15 colon) greater than 100 µM, a TGI (HL-60(TB) leukemia) greater than 100 µM and a TGI (HOP-62 NSCLC) greater than 100 µM. For the same compound, the TGI (HS 578T breast) was greater than 100 µM, the TGI (HT29 colon) was greater than 100 µM and the TGI (IGROV1 ovarian) was greater than 100 µM. It also gave a TGI (K-562 leukemia) greater than 100 µM, a TGI (KM12 colon) greater than 100 µM and a TGI (LOX IMVI melanoma) greater than 100 µM. It also gave a TGI (M14 melanoma) greater than 100 µM, a TGI (MALME-3M melanoma) greater than 100 µM and a TGI (MCF7 breast) greater than 100 µM. The TGI (MDA-MB-231 breast) was greater than 100 µM, the TGI (MDA-MB-435) was greater than 100 µM and the TGI (MDA-N) was greater than 100 µM. The TGI (MOLT-4 leukemia) was greater than 100 µM, the TGI (NCI-H226 lung) was greater than 100 µM and the TGI (NCI-H23 lung) was greater than 100 µM. It also gave a TGI (NCI-H460 lung) greater than 100 µM, a TGI (NCI-H522 lung) greater than 100 µM and a TGI (NCI/ADR-RES ovarian) greater than 100 µM. For the same compound, the TGI (OVCAR-3 ovarian) was greater than 100 µM, the TGI (OVCAR-4 ovarian) was greater than 100 µM and the TGI (OVCAR-5 ovarian) was greater than 100 µM. The TGI (OVCAR-8 ovarian) was greater than 100 µM, the TGI (PC-3 prostate) was greater than 100 µM and the TGI (RPMI-8226 leukemia) was greater than 100 µM. For the same compound, the TGI (SF-268 CNS) was greater than 100 µM, the TGI (SF-295 CNS) was greater than 100 µM and the TGI (SF-539 CNS) was greater than 100 µM. The TGI (SK-MEL-2 melanoma) was greater than 100 µM, the TGI (SK-MEL-28 melanoma) was greater than 100 µM and the TGI (SK-MEL-5 melanoma) was greater than 100 µM. For the same compound, the TGI (SK-OV-3 ovarian) was greater than 100 µM, the TGI (SN12C renal) was greater than 100 µM and the TGI (SNB-19 CNS) was greater than 100 µM. It also gave a TGI (SNB-75 CNS) greater than 100 µM, a TGI (SR leukemia) of 82.9 µM and a TGI (SW-620 colon) greater than 100 µM. For the same compound, the TGI (T-47D breast) was greater than 100 µM, the TGI (TK-10 renal) was greater than 100 µM and the TGI (U251 CNS) was greater than 100 µM. It also gave a TGI (UACC-257 melanoma) greater than 100 µM, a TGI (UACC-62 melanoma) greater than 100 µM and a TGI (UO-31 renal) greater than 100 µM.

With `CCN(CC)C(=S)SC(C(=O)Nc1nnc(-c2ccccc2)o1)c1ccccc1` (configuration not stated) the TGI (786-0 renal) was 61.1 µM, the TGI (A498 renal) was 40.7 µM and the TGI (A549 NSCLC) was 35.7 µM. It also gave a TGI (ACHN renal) of 57.7 µM, a TGI (BT-549 breast) of 35 µM and a TGI (CAKI-1 renal) of 50 µM. The TGI (COLO 205 colon) was 84.4 µM, the TGI (DU-145 prostate) was 57.8 µM and the TGI (EKVX NSCLC) was 49.5 µM. For the same compound, the TGI (HCT-116 colon) was 34.7 µM, the TGI (HCT-15 colon) was 24.5 µM and the TGI (HOP-62 NSCLC) was greater than 100 µM. It also gave a TGI (HS 578T breast) greater than 100 µM, a TGI (HT29 colon) of 41.8 µM and a TGI (IGROV1 ovarian) greater than 100 µM. The TGI (K-562 leukemia) was greater than 100 µM, the TGI (KM12 colon) was 62.7 µM and the TGI (LOX IMVI melanoma) was 17 µM. For the same compound, the TGI (M14 melanoma) was 42 µM, the TGI (MALME-3M melanoma) was 62 µM and the TGI (MCF7 breast) was 47.7 µM. The TGI (MDA-MB-231 breast) was greater than 100 µM, the TGI (MDA-MB-435) was 34.8 µM and the TGI (MDA-N) was 36.5 µM. The TGI (MOLT-4 leukemia) was greater than 100 µM, the TGI (NCI-H226 lung) was 74.7 µM and the TGI (NCI-H23 lung) was 34.2 µM. It also gave a TGI (NCI-H460 lung) of 31.6 µM, a TGI (NCI-H522 lung) of 49.2 µM and a TGI (NCI/ADR-RES ovarian) of 41.1 µM. It also gave a TGI (OVCAR-3 ovarian) of 41.8 µM, a TGI (OVCAR-4 ovarian) greater than 100 µM and a TGI (OVCAR-5 ovarian) of 56.1 µM. It also gave a TGI (OVCAR-8 ovarian) greater than 100 µM, a TGI (PC-3 prostate) of 66.8 µM and a TGI (RPMI-8226 leukemia) greater than 100 µM. The TGI (RXF 393 renal) was 39.8 µM, the TGI (SF-295 CNS) was greater than 100 µM and the TGI (SF-539 CNS) was 65.9 µM. It also gave a TGI (SK-MEL-2 melanoma) of 46.7 µM, a TGI (SK-MEL-28 melanoma) of 54.6 µM and a TGI (SK-MEL-5 melanoma) of 28.8 µM. The TGI (SK-OV-3 ovarian) was greater than 100 µM, the TGI (SN12C renal) was 32.3 µM and the TGI (SNB-19 CNS) was greater than 100 µM. The TGI (SNB-75 CNS) was greater than 100 µM, the TGI (SR leukemia) was 70.7 µM and the TGI (SW-620 colon) was greater than 100 µM. It also gave a TGI (T-47D breast) greater than 100 µM, a TGI (TK-10 renal) greater than 100 µM and a TGI (U251 CNS) of 61.4 µM. The TGI (UACC-257 melanoma) was 74.5 µM and the TGI (UO-31 renal) was 23.9 µM.
